Experimental findings from US12649723B2, “Carbonohydrazonoyl dicyanide compounds comprising 2 or more aryl or heteroaryl connected via linker and use thereof” (KOREA INSTITUTE OF SCIENCE AND TECHNOLOGY, priority 2020, dated 2026) are described below.

Broadly, the IC50 is the concentration that gives 50% inhibition. A lower IC50 goes with higher potency.

In one data set the target is T1, tau protein (Homo sapiens, UniProt P10636).
T1 construct: fused on or other part: Split fluorescent-protein halves for BiFC are fused to tau; In the published tau-BiFC line these are Venus VN173 and VC155
T1 sequence (P10636 2-441 isoform P10636-8 limits assumed): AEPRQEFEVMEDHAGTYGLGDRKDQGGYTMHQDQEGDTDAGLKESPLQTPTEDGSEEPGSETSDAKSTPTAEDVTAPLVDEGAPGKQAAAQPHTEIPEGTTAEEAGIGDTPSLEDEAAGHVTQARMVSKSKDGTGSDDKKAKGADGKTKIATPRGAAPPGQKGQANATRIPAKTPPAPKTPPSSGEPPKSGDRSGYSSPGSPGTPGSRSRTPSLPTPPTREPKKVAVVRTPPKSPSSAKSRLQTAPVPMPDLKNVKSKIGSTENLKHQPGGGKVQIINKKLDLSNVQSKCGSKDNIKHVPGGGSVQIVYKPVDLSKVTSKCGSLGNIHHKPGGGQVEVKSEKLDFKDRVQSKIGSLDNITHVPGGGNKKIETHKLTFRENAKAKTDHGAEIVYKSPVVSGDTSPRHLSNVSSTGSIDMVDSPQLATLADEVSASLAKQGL
Description: Tau-BiFC cell model: inhibition of tau protein aggregation. It is filed as cell-based. The following applies: for remaining activity at 10 µM / remaining activity at 3 µM: 48 h; for remaining activity at 10 µM: read-out: Response (% @10 μM); for IC50: Tau BiFC in cells, with Forskolin 30 μM, 48 hours; for remaining activity at 3 µM: compounds marked *: measured at 3 μM, read-out: Response. The procedure:
(§1) In order to select novel tau protein aggregation-inhibiting substances, tau-BiFC cell model, in which formation of tau oligomers in living cells is easily observed, was used. Tau-BiFC cells were aliquoted into a 384-well plate. On the next day, the cells were treated with each of the compounds prepared according to Examples 1 to 175 at concentrations of 1 μM, 3 μM, and 10 μM, together with Forskolin (at a treatment concentration of 30 μM), which is a compound inducing tau protein aggregation by activating tau […] PKA. After 48 hours, nuclei in the cells were stained using Hoechst (at a treatment concentration of 2 μg/mL), and BiFC fluorescence intensity was automatically measured using Operetta (PerkinElmer) to count stained nuclei in each well out of the entire well plate. The group treated only with Forskolin, which induces tau protein aggregation, was set to a reference point of a 100% tau protein-aggregated state, and the effects of the compounds were confirmed using the equation “BiFC fluorescence intensity due to compound synthesized according to embodiment of present invention/(fluorescence intensity of control group treated only with Forskolin inducing tau protein aggregation−fluorescence intensity of untreated control group)×100”. Furthermore, the degree of cytotoxicity induced by the newly synthesized compound was also measured based on the 100% cell viability of the group treated only with Forskolin as a reference, and the cytotoxicity value of each compound was calculated using the equation “(number of stained nuclei in group treated with compound/number of stained nuclei in group treated with Forskolin)×100”. Based on the treatment results, substances inhibiting intracellular tau protein aggregation were selected from a series of candidate groups showing a tau protein aggregation inhibition rate of 70% or more and cell viability of 100% at a compound treatment concentration of 10 μM or more.
(§2) In order to evaluate dose-dependent tau protein aggregation inhibition effects of the compounds selected according to Experimental Example 1 on tau protein aggregation, tau-BiFC cells were treated with the selected compounds at concentrations of 0.03 μM, […], 0.3 μM, 1 μM, 3 μM, 10 μM, and 30 μM, respectively, together with Forskolin (at a treatment concentration of 30 μM), which is a tau protein aggregation inducing substance. After 48 hours, tau protein aggregation reaction and degrees of cytotoxicity were analyzed by observing images of the cells. IC50 and toxicity of the compounds were analyzed by way of nonlinear regression analysis of prism software (Graph Pad).

The next data set relates to Tau-BiFC cells. The data set can be described thus: Cell viability (cytotoxicity) in tau-BiFC cells, count of stained nuclei. The format is cell-based. As to conditions: Forskolin-only group = 100% cell viability; for Cell viability (% @10 μM): compound 10 μM; for Cell viability: compounds marked *: measured at 3 μM. The procedure:
as §1, §2

Where [1] appears, read: compound 10 μM, BiFC fluorescence, Forskolin-only group = 100% tau protein-aggregated state.
The mark [2] stands for this setting: Forskolin-only group = 100% tau protein-aggregated state.

For the compound `Cc1cncc(NC(=O)c2ccc(NN=C(C#N)C#N)cc2)c1` [Compound 48, (4-(5-methylpyridin-3-ylcarbamoyl)phenyl)carbonohydrazonoyl dicyanide], at tau protein (setting [1]), the remaining activity at 10 µM is 0%. The “Cell viability (% @10 μM)” value in the data set on Tau-BiFC cells was found to be 122.3%.
On to `N#CC(C#N)=NNc1ccc(Oc2ccc(C#N)cc2)cc1` [Compound 87, (4-(4-cyanophenoxy)phenyl)carbonohydrazonoyl dicyanide], for which the remaining activity at 10 µM at tau protein (setting [1]) stood at 0%. For the same compound, on tau protein, the IC50 worked out at 1220 nM. The “Cell viability (% @10 μM)” value in the data set on Tau-BiFC cells is given as 39.4%.
`Cc1ccc(NC(=O)c2ccc(NN=C(C#N)C#N)cc2C)cn1` [Compound 53, (3-methyl-4-(6-methylpyridin-3-ylcarbamoyl)phenyl)carbonohydrazonoyl dicyanide]: the remaining activity at 10 µM on tau protein (setting [1]) is 22.9%. Moreover, in the data set on Tau-BiFC cells, the “Cell viability (% @10 μM)” value was found to be 116.1%.
Consider `N#CC(C#N)=NNc1ccc(C(=O)Nc2ncccn2)nc1` [Compound 43, (6-(pyrimidin-2-ylcarbamoyl)pyridin-3-yl)carbonohydrazonoyl dicyanide], for which the remaining activity at 10 µM on tau protein (setting [1]) stood at 3%. In addition, the “Cell viability (% @10 μM)” value with Tau-BiFC cells is given as 168.6%.
`Cc1cnc(C(=O)Nc2ccc(NN=C(C#N)C#N)cc2Cl)cn1` [Compound 11, (3-chloro-4-(5-methylpyrazine-2-carboxamido)phenyl)carbonohydrazonoyl dicyanide]: on tau protein (setting [1]), the remaining activity at 10 µM was 0%. At tau protein, this compound displayed an IC50 of 110 nM. Moreover, in the data set on Tau-BiFC cells, the “Cell viability (% @10 μM)” value amounted to 82.5%.
For `N#CC(C#N)=NNc1ccc(OCc2ccc(C(F)(F)F)cc2)nc1` [Compound 96, (6-(4-(trifluoromethyl)benzyloxy)pyridin-3-yl)carbonohydrazonoyl dicyanide], at tau protein (setting [1]), the remaining activity at 10 µM worked out at 0%. Moreover, the midpoint of inhibition against tau protein, the IC50, lay at 400 nM. Besides, in the data set on Tau-BiFC cells, the “Cell viability (% @10 μM)” value is on record as 27.5%.
`COc1ccc(CCOc2ccc(NN=C(C#N)C#N)cc2C(F)(F)F)cc1` [Compound 134, (4-(4-methoxyphenethoxy)-3-(trifluoromethyl)phenyl)carbonohydrazonoyl dicyanide]: the remaining activity at 10 µM on tau protein (setting [1]) came to 0%. Moreover, in the data set with Tau-BiFC cells, the “Cell viability (% @10 μM)” value is 38.1%.
As to `N#CC(C#N)=NNc1ccc(OCCc2ccccc2)c(C(F)(F)F)c1` [Compound 101, (4-phenethoxy-3-(trifluoromethyl)phenyl)carbonohydrazonoyl dicyanide], the remaining activity at 10 µM on tau protein (setting [1]) was found to be 0%. 950 nM corresponded to half-maximal inhibition against tau protein (IC50). Further, the “Cell viability (% @10 μM)” value in the data set on Tau-BiFC cells worked out at 30.1%.
For the compound `Cc1cnc(C(=O)Nc2cc(C)c(NN=C(C#N)C#N)cn2)cn1` [Compound 13, (4-methyl-6-(5-methylpyrazine-2-carboxamido)pyridin-3-yl)carbonohydrazonoyl dicyanide], the remaining activity at 10 µM on tau protein (setting [1]) is 30%. Besides, inhibition against tau protein was half-maximal at 550 nM (IC50). For the same compound, the “Cell viability (% @10 μM)” value in the data set with Tau-BiFC cells turned out to be 110%.
For `N#CC(C#N)=NNc1ccc(NC(=O)c2cccc(F)c2)nc1` [Compound 18, (6-(3-fluorobenzamido)pyridin-3-yl)carbonohydrazonoyl dicyanide], the remaining activity at 10 µM at tau protein (setting [1]) came out at 0%. This compound also displayed an IC50 against tau protein of 660 nM. In addition, the “Cell viability (% @10 μM)” value with Tau-BiFC cells is 113%.
Taken in the same sequence, the figures for `N#CC(C#N)=NNc1ccc(OCCc2ccccc2)nc1` [Compound 100, (6-phenethoxypyridin-3-yl)carbonohydrazonoyl dicyanide] were 0%, 780 nM and 39.4%.
Consider `COc1cc(C(=O)Nc2cnc(C)cn2)ccc1NN=C(C#N)C#N` [Compound 51, (2-methoxy-4-(5-methylpyrazin-2-ylcarbamoyl)phenyl)carbonohydrazonoyl dicyanide], for which the remaining activity at 10 µM at tau protein (setting [1]) came out at 45.4%. For the same compound, in the data set on Tau-BiFC cells, the “Cell viability (% @10 μM)” value is listed as 107.1%.
For the compound `N#CC(C#N)=NNc1ccc(NC(=O)c2ccccc2)nc1` [Compound 15, (6-benzamidopyridin-3-yl)carbonohydrazonoyl dicyanide], the remaining activity at 10 µM on tau protein (setting [1]) came out at 0%. This compound also displayed an IC50 against tau protein of 90 nM. The “Cell viability (% @10 μM)” value in the data set with Tau-BiFC cells was determined as 79.9%.
In the case of `Cc1cnc(C(=O)Nc2nc3ncc(NN=C(C#N)C#N)cc3s2)cn1` [Compound 33, (2-(5-methylpyrazine-2-carboxamido)thiazolo[4,5-b]pyridin-6-yl)carbonohydrazonoyl dicyanide], the remaining activity at 10 µM on tau protein (setting [1]) turned out to be 63.9%. Besides, the “Cell viability (% @10 μM)” value with Tau-BiFC cells was found to be 125%.
As to `Cc1cc(NN=C(C#N)C#N)ccc1OCc1ccccc1` [Compound 141, (4-(benzyloxy)-3-methylphenyl)carbonohydrazonoyl dicyanide], the remaining activity at 3 µM at tau protein (setting [2]) was -25%. This compound also yielded an IC50 on tau protein of 866 nM. Further, in the data set on Tau-BiFC cells, the Cell viability is 109%.
Turning to `Cc1ccc(COc2ccc(NN=C(C#N)C#N)cc2C)cc1` [Compound 142, (3-methyl-4-(4-methylbenzyloxy)phenyl)carbonohydrazonoyl dicyanide], at tau protein (setting [2]), the remaining activity at 3 µM is -5%. Also, the half-maximal inhibitory concentration (IC50) against tau protein was found to be 1610 nM. In the data set with Tau-BiFC cells, the Cell viability turned out to be 111%.
With `Cc1ccc(S(=O)(=O)Nc2ccc(NN=C(C#N)C#N)cn2)cc1` [Compound 63, (6-(4-methylphenylsulfonamido)pyridin-3-yl)carbonohydrazonoyl dicyanide], the remaining activity at 10 µM at tau protein (setting [1]) was 11.5%. Moreover, the “Cell viability (% @10 μM)” value with Tau-BiFC cells was 136.7%.
Regarding `N#CC(C#N)=NNc1ccc(Oc2ccccc2)cn1` [Compound 70, (5-phenoxypyridin-2-yl)carbonohydrazonoyl dicyanide], on tau protein (setting [1]), the remaining activity at 10 µM worked out at 0%. The compound further had an IC50 against tau protein of 310 nM. The “Cell viability (% @10 μM)” value with Tau-BiFC cells stood at 94.5%.
Consider `N#CC(C#N)=NNc1ccc(OCc2cc3ccccc3s2)cc1` [Compound 130, (4-(benzo[b]thiophen-2-ylmethoxy)phenyl)carbonohydrazonoyl dicyanide], for which the remaining activity at 10 µM on tau protein (setting [1]) turned out to be 0%. Besides, the “Cell viability (% @10 μM)” value in the data set with Tau-BiFC cells came to 113%.
On to `N#CC(C#N)=NNc1ccc(OCCc2ccc(C(F)(F)F)cc2)c(C(F)(F)F)c1` [Compound 135, (3-(trifluoromethyl)-4-(4-(trifluoromethyl)phenethoxy)phenyl)carbonohydrazonoyl dicyanide], for which the remaining activity at 10 µM on tau protein (setting [1]) was 0%. In addition, the “Cell viability (% @10 μM)” value in the data set with Tau-BiFC cells worked out at 41.7%.
For the compound `N#CC(C#N)=NNc1ccc(NC(=O)c2cocn2)nc1` [Compound 113, (6-(oxazole-4-carboxamido)pyridin-3-yl)carbonohydrazonoyl dicyanide], the remaining activity at 10 µM at tau protein (setting [1]) is 0%. Moreover, 200 nM corresponded to half-maximal inhibition at tau protein (IC50). In the data set on Tau-BiFC cells, the “Cell viability (% @10 μM)” value came out at 147%.
As for “(2-methoxy-4-(5-methylpyrazine-2-carboxamido)phenyl)carbonohydrazonoyl dicyanide [Compound 4]”, the “Response (% @10 μM)” value at tau protein (setting [1]) is reported as 30.7%. For the same compound, the “Cell viability (% @10 μM)” value in the data set with Tau-BiFC cells came out at 67%.
`Cc1cnc(NC(=O)c2ccc(NN=C(C#N)C#N)cc2Cl)cn1` [Compound 106, (3-chloro-4-(5-methylpyrazin-2-ylcarbamoyl)phenyl)carbonohydrazonoyl dicyanide]: the remaining activity at 10 µM on tau protein (setting [1]) was 0%. The “Cell viability (% @10 μM)” value in the data set on Tau-BiFC cells was 184.9%.
Take `N#CC(C#N)=NNc1ccc(Oc2cccnn2)cc1` [Compound 92, (4-(pyridazin-3-yloxy)phenyl)carbonohydrazonoyl dicyanide]: the remaining activity at 10 µM at tau protein (setting [1]) came out at 0%. In addition, the IC50 at tau protein is 550 nM. In addition, in the data set on Tau-BiFC cells, the “Cell viability (% @10 μM)” value was determined as 116.8%.
